Test results taken from the supplement of paper PMC10307832.

Columns and labels:
Assay in all cases: relative viability (nuclei count vs DMSO), 5 days (fraction); higher = more cells survive
Trametinib + Pemetrexed = compound: CC(=O)Nc1cccc(-n2c(=O)n(C3CC3)c(=O)c3c(Nc4ccc(I)cc4F)n(C)c(=O)c(C)c32)c1 [Trametinib] + Nc1nc2[nH]cc(CCc3ccc(C(=O)N[C@@H](CCC(=O)O)C(=O)O)cc3)c2c(=O)[nH]1 [Pemetrexed] (partner 0.2 µM)
Summary of the method: (§1)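 Lung cancer cell lines in 1536-well plates were dosed by pin tool the day after seeding, either with one drug alone or with a fixed anchor-drug dose plus five library-drug doses (not always all listed) in √10 steps. After 5 days, cells were fixed and their nuclei stained in one step (final 0.05% Triton X-100, 1% formaldehyde, 1 ug/ml Hoechst), then counted on 4× images. Relative viability is the nuclei count in treated wells divided by that in vehicle wells. Values are medians of duplicate plates.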

Trametinib + Palbociclib = compound: CC(=O)Nc1cccc(-n2c(=O)n(C3CC3)c(=O)c3c(Nc4ccc(I)cc4F)n(C)c(=O)c(C)c32)c1 [Trametinib] + CC(=O)c1c(C)c2cnc(Nc3ccc(N4CCNCC4)cn3)nc2n(C2CCCC2)c1=O [Palbociclib] (partner 0.5 µM)
Summary of the method: as §1

[1] = compound: CN1C=C(C2=CC=CC=C21)/C=C\3/C4=C(C=CC=N4)NC3=O + CC(C)C[C@H](NC(=O)[C@H](Cc1ccccc1)NC(=O)c1cnccn1)B(O)O [Bortezomib] (partner 0.002 µM)
Summary of the method: as §1

[2] = compound: CN1C=C(C2=CC=CC=C21)/C=C\3/C4=C(C=CC=N4)NC3=O + CS(=O)(=O)CCNCc1ccc(-c2ccc3ncnc(Nc4ccc(OCc5cccc(F)c5)c(Cl)c4)c3c2)o1 [Lapatinib] (partner 2 µM)
Summary of the method: as §1

Row | Cell Line | relative viability (Trametinib + Pemetrexed; first compound 0.0025 µM) | relative viability (Trametinib + Pemetrexed; first compound 0.007906 µM) | relative viability (Trametinib + Pemetrexed; first compound 0.025 µM) | relative viability (Trametinib + Pemetrexed; first compound 0.07906 µM) | relative viability (Trametinib + Pemetrexed; first compound 0.25 µM) | relative viability (Trametinib + Palbociclib; first compound 0.0025 µM) | relative viability (Trametinib + Palbociclib; first compound 0.007906 µM) | relative viability (Trametinib + Palbociclib; first compound 0.025 µM) | relative viability (Trametinib + Palbociclib; first compound 0.07906 µM) | relative viability (Trametinib + Palbociclib; first compound 0.25 µM) | relative viability ([1]; first compound 0.02 µM) | relative viability ([1]; first compound 0.06325 µM) | relative viability ([1]; first compound 0.2 µM) | relative viability ([1]; first compound 0.6325 µM) | relative viability ([1]; first compound 2 µM) | relative viability ([2]; first compound 0.02 µM) | relative viability ([2]; first compound 0.06325 µM) | relative viability ([2]; first compound 0.2 µM) | relative viability ([2]; first compound 0.6325 µM) | relative viability ([2]; first compound 2 µM)
1 | NCI-H838 | 0.245 | 0.212 | 0.229 | 0.217 | 0.213 | 0.207 | 0.183 | 0.162 | 0.159 | 0.202 | 0.79 | 0.769 | 0.835 | 0.785 | 0.818 | 0.774 | 0.9 | 0.813 | 0.785 | 0.896
2 | RERF-LC-KJ | 0.481 | 0.474 | 0.435 | 0.494 | 0.422 | 1.03 | 0.857 | 0.914 | 0.848 | 0.66 | 1.24 | 1.11 | 0.994 | 0.958 | 0.974 | 0.984 | 0.813 | 0.821 | 0.7 | 0.752
3 | PC-14 | 0.131 | 0.113 | 0.153 | 0.132 | 0.141 | 0.46 | 0.306 | 0.295 | 0.214 | 0.102 | 0.826 | 0.831 | 0.981 | 0.898 | 0.991 | 0.262 | 0.289 | 0.256 | 0.275 | 0.315
4 | NCI-H2009 | 1.06 | 0.794 | 0.499 | 0.368 | 0.37 | 0.138 | 0.135 | 0.109 | 0.135 | 0.125 | 1.01 | 0.963 | 0.963 | 1.07 | 1 | 0.996 | 0.965 | 1.02 | 0.947 | 0.898
5 | NCI-H1437 | 0.271 | 0.23 | 0.265 | 0.203 | 0.192 | 0.319 | 0.226 | 0.204 | 0.196 | 0.211 | 0.629 | 0.613 | 0.475 | 0.511 | 0.54 | 0.837 | 0.842 | 0.708 | 0.841 | 0.938
6 | NCI-H647 | 0.188 | 0.183 | 0.152 | 0.155 | 0.141 | 0.374 | 0.344 | 0.334 | 0.16 | 0.108 | 1.28 | 0.793 | 0.712 | 0.709 | 0.958 | 1.06 | 0.995 | 0.679 | 0.949 | 1.27
7 | NCI-H2087 | 0.554 | 0.642 | 0.468 | 0.179 | 0.281 | 0.162 | 0.137 | 0.127 | 0.111 | 0.0967 | 0.812 | 0.815 | 0.882 | 0.839 | 0.836 | 1.28 | 0.757 | 0.968 | 0.949 | 1.07
8 | BEN | 0.706 | 0.752 | 0.511 | 0.45 | 0.646 | 0.455 | 0.479 | 0.455 | 0.475 | 0.468 | 0.82 | 0.557 | 0.64 | 0.593 | 0.917 | 0.685 | 0.718 | 0.559 | 0.585 | 0.785
9 | NCI-H3122 | 0.187 | 0.183 | 0.166 | 0.149 | 0.149 | 0.189 | 0.158 | 0.125 | 0.112 | 0.101 | 0.943 | 0.986 | 1 | 1.06 | 0.992 | 0.928 | 0.934 | 0.952 | 1.06 | 1.02
10 | LCLC-97TM1 | 0.188 | 0.238 | 0.181 | 0.176 | 0.152 | 0.166 | 0.141 | 0.15 | 0.13 | 0.115 |  | 0.444 |  | 0.521 | 0.517 | 0.696 |  |  | 0.882 | 0.948
11 | NCI-H2228 | 0.369 | 0.301 | 0.339 | 0.295 | 0.208 | 0.649 | 0.595 | 0.57 | 0.369 | 0.235 | 0.882 | 0.834 |  | 0.887 | 1.19 | 1.24 | 0.88 |  | 1.02 | 0.972
12 | COR-L23 | 0.192 | 0.211 | 0.23 | 0.214 | 0.209 | 0.317 | 0.246 | 0.191 | 0.143 | 0.14 | 1.01 | 0.953 | 1.19 | 0.866 | 1.04 | 0.973 | 0.92 | 1.16 | 0.923 | 1.12
13 | EMC-BAC-2 | 0.547 | 0.489 | 0.572 | 0.544 | 0.56 | 0.581 | 0.555 | 0.495 | 0.502 | 0.357 | 0.901 | 1.05 | 1.01 | 1.05 | 1.14 | 0.883 | 0.91 | 0.934 | 0.836 | 0.921
14 | A-427 | 1.08 | 1.1 | 0.977 | 0.839 | 0.679 | 0.534 | 0.511 | 0.45 | 0.45 | 0.372 | 0.939 | 0.9 |  | 1.03 | 1.21 | 0.972 | 1.04 |  | 0.998 | 1.07
15 | NCI-H520 | 0.645 | 0.69 | 0.667 | 0.648 | 0.533 | 0.217 | 0.238 | 0.199 | 0.158 | 0.232 | 0.6 | 0.432 | 0.653 | 0.578 | 0.667 | 0.741 | 0.86 | 0.841 | 0.981 | 0.937
16 | NCI-H650 | 1.12 | 1.31 | 1.01 | 1.06 | 0.884 | 0.421 | 0.469 | 0.487 | 0.535 | 0.374 | 0.702 | 0.859 |  | 0.725 | 0.879 | 0.824 | 0.738 |  | 0.754 | 0.82
